Converted amounts (≈) assume the structure as drawn. The source made the active and inactive calls. How the calls were made is not given here.
Tested on: Y. pseudotuberculosis YP126 growth, MIC at 37 C
Test: Y. pseudotuberculosis growth inhibition MIC, strain YP126, 22/37/40 C (AID 1505)

Compound | MIC | MIC (measured here: MIC at 22 C) | MIC (measured here: MIC at 40 C)
O=C(Nc1ccc2[nH]ccc2c1)c1cccs1 | 400 µM (inactive) (≈ 96.9 µg/mL) | 400 µM (≈ 96.9 µg/mL) | 400 µM (≈ 96.9 µg/mL)
Cc1ccc(CNC(=O)c2ccc([N+](=O)[O-])o2)cc1 | 25 µM (≈ 6.51 µg/mL) | 400 µM (≈ 104 µg/mL) | < 12 µM

Reference: PubChem BioAssay AID1505 (Sanford-Burnham Center for Chemical Genomics, 2009)
